Data set [1] can be described thus: refractive index (Na D-line) (dimensionless). Particulars: 298.15 K; 101.33 kPa; Liquid; Standard Abbe refractometry.
For data set [2] the following is noted: 298.15 K; 101.33 kPa; Liquid.
A short description of data set [3]: excess molar enthalpy (molar enthalpy of mixing); xn = mol fraction of the nth substance listed. Particulars: 298.15 K, 101 kPa, Liquid.

Numbers after ± are expanded uncertainties.

`CC(O)CO` (stereo not given) [1,2-propanediol]: the refractive index in data set [1] was 1.4323 ± 0.0005. Also, the mass density in data set [2] turned out to be 1032.61 ± 0.31 kg/m3.
`CC(O)CO` (stereo not given) [1,2-propanediol] + CCCCCCO: the excess molar enthalpy in data set [3] (x1 = 0.0905) came out at 0.0833 ± 0.00359 kcal/mol; in data set [3] (x1 = 0.1929) it was 0.138 ± 0.00526 kcal/mol; in data set [3] (x1 = 0.2872), 0.165 ± 0.00621 kcal/mol; in data set [3] (x1 = 0.3828) it was 0.178 ± 0.00669 kcal/mol; in data set [3] (x1 = 0.4778), 0.181 ± 0.00693 kcal/mol; in data set [3] (x1 = 0.5711) it was 0.173 ± 0.00645 kcal/mol. Moreover, the excess molar enthalpy in data set [3] (x1 = 0.6718) amounted to 0.157 ± 0.00598 kcal/mol; in data set [3] (x1 = 0.7021), 0.146 ± 0.00574 kcal/mol; in data set [3] (x1 = 0.7996), 0.116 ± 0.00454 kcal/mol; in data set [3] (x1 = 0.904) it was 0.0673 ± 0.00287 kcal/mol.
In the case of `CC(O)CO` (stereo not given) [1,2-propanediol] + CCCCCO, the excess molar enthalpy in data set [3] (x1 = 0.0914) turned out to be 0.0774 ± 0.00335 kcal/mol; in data set [3] (x1 = 0.1843), 0.124 ± 0.00478 kcal/mol; in data set [3] (x1 = 0.2821) it was 0.15 ± 0.00574 kcal/mol; in data set [3] (x1 = 0.3755), 0.162 ± 0.00621 kcal/mol; in data set [3] (x1 = 0.4761) it was 0.163 ± 0.00621 kcal/mol; in data set [3] (x1 = 0.577) it was 0.153 ± 0.00598 kcal/mol. Moreover, the excess molar enthalpy in data set [3] (x1 = 0.6082) was determined as 0.146 ± 0.00574 kcal/mol; in data set [3] (x1 = 0.7027), 0.126 ± 0.00502 kcal/mol; in data set [3] (x1 = 0.802), 0.0963 ± 0.00382 kcal/mol; in data set [3] (x1 = 0.9014), 0.0549 ± 0.00239 kcal/mol.
As to `CC(O)CO` (stereo not given) [1,2-propanediol] + CCCCO, the excess molar enthalpy in data set [3] (x1 = 0.1007) is 0.0737 ± 0.00311 kcal/mol; in data set [3] (x1 = 0.1971) it was 0.114 ± 0.00454 kcal/mol; in data set [3] (x1 = 0.2945), 0.135 ± 0.00526 kcal/mol; in data set [3] (x1 = 0.3853), 0.143 ± 0.0055 kcal/mol; in data set [3] (x1 = 0.4758), 0.142 ± 0.0055 kcal/mol; in data set [3] (x1 = 0.5644), 0.133 ± 0.00526 kcal/mol. In addition, the excess molar enthalpy was 0.124 ± 0.00478 kcal/mol in data set [3] (x1 = 0.6047), 0.104 ± 0.00406 kcal/mol in data set [3] (x1 = 0.7062), 0.0773 ± 0.00335 kcal/mol in data set [3] (x1 = 0.8047) and 0.0429 ± 0.00208 kcal/mol in data set [3] (x1 = 0.9026).
Regarding `CC(O)CO` (stereo not given) [1,2-propanediol] + CCCO, the excess molar enthalpy in data set [3] (x1 = 0.1008) was found to be 0.0544 ± 0.00239 kcal/mol; in data set [3] (x1 = 0.201) it was 0.087 ± 0.00359 kcal/mol; in data set [3] (x1 = 0.3036), 0.105 ± 0.0043 kcal/mol; in data set [3] (x1 = 0.4025), 0.111 ± 0.0043 kcal/mol; in data set [3] (x1 = 0.5001) it was 0.107 ± 0.0043 kcal/mol; in data set [3] (x1 = 0.5049), 0.109 ± 0.0043 kcal/mol. Besides, the excess molar enthalpy in data set [3] (x1 = 0.6007) amounted to 0.0973 ± 0.00406 kcal/mol; in data set [3] (x1 = 0.7015), 0.0808 ± 0.00335 kcal/mol; in data set [3] (x1 = 0.8011) it was 0.0589 ± 0.00263 kcal/mol; in data set [3] (x1 = 0.9009), 0.0316 ± 0.00172 kcal/mol.
For `CC(O)CO` (stereo not given) [1,2-propanediol] + CCO, the excess molar enthalpy stood at 0.0215 ± 0.00141 kcal/mol in data set [3] (x1 = 0.0997); 0.0343 ± 0.00182 kcal/mol in data set [3] (x1 = 0.1948); 0.042 ± 0.00206 kcal/mol in data set [3] (x1 = 0.2875); 0.0453 ± 0.00215 kcal/mol in data set [3] (x1 = 0.381); 0.0451 ± 0.00215 kcal/mol in data set [3] (x1 = 0.4756); 0.0474 ± 0.00222 kcal/mol in data set [3] (x1 = 0.4952). Also, the excess molar enthalpy in data set [3] (x1 = 0.5972) amounted to 0.0427 ± 0.00208 kcal/mol; in data set [3] (x1 = 0.6991), 0.0353 ± 0.00184 kcal/mol; in data set [3] (x1 = 0.8005), 0.0253 ± 0.00153 kcal/mol; in data set [3] (x1 = 0.9004) it was 0.0136 ± 0.00117 kcal/mol.
As to `CC(O)CO` (stereo not given) [1,2-propanediol] + CO, the excess molar enthalpy was -0.00605 ± 0.000932 kcal/mol in data set [3] (x1 = 0.0787); -0.01 ± 0.00105 kcal/mol in data set [3] (x1 = 0.1565); -0.0127 ± 0.00112 kcal/mol in data set [3] (x1 = 0.2336); -0.0143 ± 0.0012 kcal/mol in data set [3] (x1 = 0.3099); -0.0151 ± 0.00122 kcal/mol in data set [3] (x1 = 0.3885); -0.014 ± 0.00117 kcal/mol in data set [3] (x1 = 0.3952). Also, the excess molar enthalpy in data set [3] (x1 = 0.4998) is -0.0136 ± 0.00117 kcal/mol; in data set [3] (x1 = 0.6004), -0.0124 ± 0.00112 kcal/mol; in data set [3] (x1 = 0.7015), -0.0102 ± 0.00105 kcal/mol; in data set [3] (x1 = 0.8026), -0.00743 ± 0.00098 kcal/mol; in data set [3] (x1 = 0.9), -0.00392 ± 0.00086 kcal/mol.
Take `CCCCO` [butan-1-ol]: the refractive index in data set [1] is 1.3974 ± 0.0005. Besides, in data set [2], the mass density came out at 805.75 ± 0.23 kg/m3.
In the case of `CCO` [ethanol], the refractive index in data set [1] stood at 1.3595 ± 0.0005. Besides, the mass density in data set [2] is reported as 785.15 ± 0.25 kg/m3.
For `CCCCCCO` [hexan-1-ol], in that order: 1.4166 ± 0.0006 and 815.2 ± 1.9 kg/m3.
In the same order, the values of `CO` [methanol] are 1.327 ± 0.0005 and 786.5 ± 0.51 kg/m3.
For `CCCCCO` [pentan-1-ol], in that order: 1.4089 ± 0.0005 and 810.88 ± 0.94 kg/m3.
For the compound `CCCO` [propan-1-ol], in data set [1], the refractive index is reported as 1.3833 ± 0.0005. For the same compound, the mass density in data set [2] is reported as 799.51 ± 0.24 kg/m3.

The values are drawn from the NIST ThermoML archive (doi:10.1021/je060086x).
